Data from patent publication EP1247803A2, “Indolinone compounds suitable for modulation of protein kinases” (Sugen, Inc., priority 1996, dated 1998).

Assays:
MET = MET biochemical kinase assay; parameters: species or system human; concentration or dose not given beside the values
Summary of the method: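 Capture ELISA: anti-rabbit Fc coat, rabbit anti-MET cytoplasmic domain pAb, lysate MET captured, washed. Compound + kinase buffer (ATP, divalent metals). Readout anti-pTyr-HRP/TMB, colorimetric.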

FLK-1 receptor = biological target: T1, FLK-1 receptor (Mus musculus, UniProt P35918); test: FLK-1 ELISA (kinase activity of the FLK-1 receptor in FLK-1/NIH3T3 cells, VEGF stimulated); format: cell-based
T1 construct: expressed in transfected cells; host or cells: NIH3T3 C7#3
Summary of the method: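 An ELISA using affinity-purified rabbit anti-FLK-1 antiserum on anti-rabbit IgG-coated plates measured VEGF-stimulated FLK-1 kinase activity. NIH3T3 C7#3 cells carrying FLK-1 were serum-starved (0.1% FBS) overnight, then exposed to compound (final 1:200 dilution, 0.5% DMSO) for two hours at 37 °C.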

PDGF-R = PDGF-R (Homo sapiens, UniProt P09619); test: PDGF-R ELISA; format: cell-based
Source text: A PDGF-R ELISA is described in International Patent Publication No. WO 96/40116, published December 19, 1996 by Tang et al.

PDGF-R, sequence (P09619 33-1106, species assumed): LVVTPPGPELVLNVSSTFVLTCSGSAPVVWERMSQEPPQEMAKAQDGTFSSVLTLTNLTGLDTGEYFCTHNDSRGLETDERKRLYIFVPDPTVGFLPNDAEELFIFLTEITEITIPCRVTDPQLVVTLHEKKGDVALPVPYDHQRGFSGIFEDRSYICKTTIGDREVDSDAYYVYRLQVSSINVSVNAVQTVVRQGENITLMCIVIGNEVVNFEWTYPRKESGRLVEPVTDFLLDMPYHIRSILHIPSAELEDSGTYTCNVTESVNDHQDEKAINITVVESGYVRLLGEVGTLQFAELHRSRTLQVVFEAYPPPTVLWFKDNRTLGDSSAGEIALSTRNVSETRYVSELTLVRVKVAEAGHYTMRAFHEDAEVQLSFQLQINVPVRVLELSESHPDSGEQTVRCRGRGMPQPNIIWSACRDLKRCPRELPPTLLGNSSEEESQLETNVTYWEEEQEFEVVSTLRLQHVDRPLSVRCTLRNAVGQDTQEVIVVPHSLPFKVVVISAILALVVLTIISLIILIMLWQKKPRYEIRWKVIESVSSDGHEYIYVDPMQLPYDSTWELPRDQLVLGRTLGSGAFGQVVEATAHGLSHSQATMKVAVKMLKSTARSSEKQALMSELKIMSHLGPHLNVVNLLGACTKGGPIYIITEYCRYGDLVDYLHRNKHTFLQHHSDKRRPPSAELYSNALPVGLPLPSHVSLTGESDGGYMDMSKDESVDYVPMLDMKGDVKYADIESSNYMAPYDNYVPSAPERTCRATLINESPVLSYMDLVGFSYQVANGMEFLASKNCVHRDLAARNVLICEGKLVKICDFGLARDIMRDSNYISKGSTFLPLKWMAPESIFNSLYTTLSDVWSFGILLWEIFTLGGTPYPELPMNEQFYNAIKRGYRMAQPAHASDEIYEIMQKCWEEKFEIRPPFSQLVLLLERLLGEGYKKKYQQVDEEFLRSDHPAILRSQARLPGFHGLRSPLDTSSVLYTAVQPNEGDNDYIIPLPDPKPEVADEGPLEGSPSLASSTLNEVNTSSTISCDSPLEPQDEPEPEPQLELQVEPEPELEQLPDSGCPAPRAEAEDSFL
T1 sequence (P35918 20-1345): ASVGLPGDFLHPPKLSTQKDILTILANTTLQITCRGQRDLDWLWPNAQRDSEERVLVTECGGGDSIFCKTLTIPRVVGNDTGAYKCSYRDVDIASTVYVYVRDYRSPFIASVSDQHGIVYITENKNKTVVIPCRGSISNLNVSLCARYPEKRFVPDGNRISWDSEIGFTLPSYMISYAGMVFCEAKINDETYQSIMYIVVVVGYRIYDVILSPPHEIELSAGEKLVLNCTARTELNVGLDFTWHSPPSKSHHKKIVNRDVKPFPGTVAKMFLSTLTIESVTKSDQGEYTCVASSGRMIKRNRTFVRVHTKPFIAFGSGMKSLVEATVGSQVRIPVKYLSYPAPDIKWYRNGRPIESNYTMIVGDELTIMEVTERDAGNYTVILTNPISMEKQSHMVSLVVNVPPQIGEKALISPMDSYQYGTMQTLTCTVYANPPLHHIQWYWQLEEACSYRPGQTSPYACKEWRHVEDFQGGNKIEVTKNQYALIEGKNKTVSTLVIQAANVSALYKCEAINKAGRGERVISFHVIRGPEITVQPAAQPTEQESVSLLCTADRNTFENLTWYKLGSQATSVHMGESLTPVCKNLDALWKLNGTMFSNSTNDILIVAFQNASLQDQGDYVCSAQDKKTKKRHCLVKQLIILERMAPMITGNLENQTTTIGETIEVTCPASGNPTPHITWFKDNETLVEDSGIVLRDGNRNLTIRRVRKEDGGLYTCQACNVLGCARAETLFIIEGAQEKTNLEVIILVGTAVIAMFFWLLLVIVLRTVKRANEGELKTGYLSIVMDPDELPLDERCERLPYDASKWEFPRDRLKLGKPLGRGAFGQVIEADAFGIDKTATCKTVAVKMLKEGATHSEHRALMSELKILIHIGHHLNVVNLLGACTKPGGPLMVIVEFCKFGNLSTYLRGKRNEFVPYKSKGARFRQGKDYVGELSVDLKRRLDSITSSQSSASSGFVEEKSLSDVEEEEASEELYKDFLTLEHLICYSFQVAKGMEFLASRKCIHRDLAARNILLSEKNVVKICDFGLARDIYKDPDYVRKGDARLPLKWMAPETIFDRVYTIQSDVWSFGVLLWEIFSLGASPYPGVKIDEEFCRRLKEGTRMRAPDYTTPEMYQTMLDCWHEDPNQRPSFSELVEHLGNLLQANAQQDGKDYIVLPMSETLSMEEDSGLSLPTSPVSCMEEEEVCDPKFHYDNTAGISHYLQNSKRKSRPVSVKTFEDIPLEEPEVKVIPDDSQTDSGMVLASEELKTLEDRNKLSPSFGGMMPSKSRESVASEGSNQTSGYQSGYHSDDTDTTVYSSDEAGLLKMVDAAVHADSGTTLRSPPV

Row | Compound | Met Kinase % Inhibition (MET) | Fik Kinase %Inhibition (FLK-1 receptor) | PDGF Kinase %Inhibition (PDGF-R)
1 | Cc1[nH]c(C=C2C(=O)Nc3ccc(CCCl)cc32)c(Br)c1Br [10717/G11] | 73.8% | 16.4% | 
2 | CCOC(=O)c1c(C)[nH]c(C=C2C(=O)Nc3c(Br)cc(Br)cc32)c1C [10718/A02] | 54.6% | 3.0% | 
3 | COc1cc(Br)c(O)c(C=C2C(=O)Nc3c(Br)cc(Br)cc32)c1 [10718/A03] | 92.7% | 7.6% | 
4 | O=C1Nc2c(Br)cc(Br)cc2C1=Cc1ccc2ccccc2c1O [10718/A04] | 81.7% | 6.9% | 
5 | CCOC(=O)CCc1c(C(=O)OCC)[nH]c(C=C2C(=O)Nc3c(Br)cc(Br)cc32)c1CC(=O)OCC [10718/A05] | 36.1% | 3.2% | 
6 | CCOC(=O)c1cc(C=C2C(=O)Nc3c(Br)cc(Br)cc32)oc1C [10718/A06] | 61.3% | 7.8% | 
7 | COC(=O)c1[nH]c(C)c(C=C2C(=O)Nc3c(Br)cc(Br)cc32)c1C(=O)OC [10718/A07] | 58.6% | 16.2% | 
8 | O=C1Nc2c(Br)cc(Br)cc2C1=Cc1ccc(Cl)c([N+](=O)[O-])c1 [10718/A08] | 36.8% | 3.2% | 
9 | CNS(=O)(=O)c1ccc2c(c1)C(=Cc1cc(Cl)cc(Br)c1O)C(=O)N2 [10727/D04] | 76.0% | 25.9% | 6.4%
10 | CNS(=O)(=O)c1ccc2c(c1)C(=Cc1ccccc1Sc1ccc(Cl)cc1)C(=O)N2 [10727/D05] | 39.9% | 8.5% | -0.1%
11 | CNS(=O)(=O)c1ccc2c(c1)C(=Cc1cc3c(cc1Cl)OCO3)C(=O)N2 [10727/D06] | 24.4% | 13.1% | 10.8%
12 | CNS(=O)(=O)c1ccc2c(c1)C(=Cc1coc3ccccc3c1=O)C(=O)N2 [10727/D07] | 50.6% | 19.7% | -14.7%
13 | CNS(=O)(=O)c1ccc2c(c1)C(=Cc1cccc(C#N)c1)C(=O)N2 [10727/D08] | 8.5% | 14.1% | 5.0 ! %
14 | CNS(=O)(=O)c1ccc2c(c1)C(=Cc1ccc(C#N)cc1)C(=O)N2 [10727/D09] | 17.9% | 8.2% | 7.2%
15 | CNS(=O)(=O)c1ccc2c(c1)C(=Cc1cc(O)ccc1O)C(=O)N2 [10727/D10] | 79.9% | 11.4% | 9.4%
16 | CNS(=O)(=O)c1ccc2c(c1)C(=Cc1cccc(OC)c1OC)C(=O)N2 [10727/D11] | 17.3% | 10.5% | 17.4%
17 | CCN(CC)c1ccc(C=C2C(=O)Nc3ccc(S(=O)(=O)Nc4ccc(C(F)(F)F)cc4)cc32)cc1 [10727/E02] | 28.0% | 9.3% | -6.7%
18 | CCc1cc(CC)c(C=C2C(=O)Nc3ccc(S(=O)(=O)Nc4ccc(C(F)(F)F)cc4)cc32)[nH]1 [10727/E03] | 28.8% | 11.1% | 5.7%
19 | O=C1Nc2ccc(S(=O)(=O)Nc3ccc(C(F)(F)F)cc3)cc2C1=Cc1cc(Cl)cc(Br)c1O [10727/E04] | 98.4% | 46.1% | -7.4%
20 | O=C1Nc2ccc(S(=O)(=O)Nc3ccc(C(F)(F)F)cc3)cc2C1=Cc1ccccc1Sc1ccc(Cl)cc1 [10727/E05] | 12.1% | 17.1% | -7.4%
21 | O=C1Nc2ccc(S(=O)(=O)Nc3ccc(C(F)(F)F)cc3)cc2C1=Cc1cc2c(cc1Cl)OCO2 [10727/E06] | -2.2% | 14.2% | 9.4%
22 | O=C1Nc2ccc(S(=O)(=O)Nc3ccc(C(F)(F)F)cc3)cc2C1=Cc1coc2ccccc2c1=O [10727/E07] | 45.2% | 20.1% | 10.1%
23 | N#Cc1cccc(C=C2C(=O)Nc3ccc(S(=O)(=O)Nc4ccc(C(F)(F)F)cc4)cc32)c1 [10727/E08] | 27.0% | 14.2% | 23.9%
24 | N#Cc1ccc(C=C2C(=O)Nc3ccc(S(=O)(=O)Nc4ccc(C(F)(F)F)cc4)cc32)cc1 [10727/E09] | 28.4% | 9.3% | 15.9%

Row | Compound | Met Kinase % Inhibition (MET) | Fik Kinase %Inhibition (FLK-1 receptor) | PDGF Kinase %Inhibition (PDGF-R)
25 | O=C1Nc2ccc(S(=O)(=O)Nc3ccc(C(F)(F)F)cc3)cc2C1=Cc1cc(O)ccc1O [10727/E10] | 96.6% | 9.7% | 5.0%
26 | COc1cccc(C=C2C(=O)Nc3ccc(S(=O)(=O)Nc4ccc(C(F)(F)F)cc4)cc32)c1OC [10727/E11] | -5.4% | 37.3% | 7.9%
27 | CCN(CC)c1ccc(C=C2C(=O)Nc3ccc(S(=O)(=O)N4CCOCC4)cc32)cc1 [10727/F02] | 52.0% | 15.9% | 11.5%
28 | CCc1cc(CC)c(C=C2C(=O)Nc3ccc(S(=O)(=O)N4CCOCC4)cc32)[nH]1 [10727/F03] | 22.0% | 8.9% | -3.7%
29 | O=C1Nc2ccc(S(=O)(=O)N3CCOCC3)cc2C1=Cc1cc(Cl)cc(Br)c1O [10727/F04] | 92.0% | 15.3% | -10.3%
30 | O=C1Nc2ccc(S(=O)(=O)N3CCOCC3)cc2C1=Cc1ccccc1Sc1ccc(Cl)cc1 [10727/F05] | 6.0% | 21.8% | -3.7%
31 | O=C1Nc2ccc(S(=O)(=O)N3CCOCC3)cc2C1=Cc1cc2c(cc1Cl)OCO2 [10727/F06] | 37.7% | 14.5% | 8.6%
32 | O=C1Nc2ccc(S(=O)(=O)N3CCOCC3)cc2C1=Cc1coc2ccccc2c1=O [10727/F07] | 17.9% | 21.4% | 2.1%
33 | N#Cc1cccc(C=C2C(=O)Nc3ccc(S(=O)(=O)N4CCOCC4)cc32)c1 [10727/F08] | 36.9% | 12.5% | 10.1%
34 | N#Cc1ccc(C=C2C(=O)Nc3ccc(S(=O)(=O)N4CCOCC4)cc32)cc1 [10727/F09] | 9.3% | -45.2% | 21.7%
35 | O=C1Nc2ccc(S(=O)(=O)N3CCOCC3)cc2C1=Cc1cc(O)ccc1O [10727/F10] | 93.4% | 15.9% | 9.4%
36 | COc1cccc(C=C2C(=O)Nc3ccc(S(=O)(=O)N4CCOCC4)cc32)c1OC [10727/F11] | -3.0% | 17.3% | 18.1%
37 | CCN(CC)c1ccc(C=C2C(=O)Nc3ccc(CCCl)cc32)cc1 [10727/G02] | 81.5% | 7.1% | -20.5%
38 | CCc1cc(CC)c(C=C2C(=O)Nc3ccc(CCCl)cc32)[nH]1 [10727/G03] | 40.5% | -3.5% | -10.3%
39 | O=C1Nc2ccc(CCCl)cc2C1=Cc1cc(Cl)cc(Br)c1O [10727/G04] | 94.0% | 27.2% | -27.0%
40 | O=C1Nc2ccc(CCCl)cc2C1=Cc1ccccc1Sc1ccc(Cl)cc1 [10727/G05] | 7.1% | 8.0% | -2.3%
41 | O=C1Nc2ccc(CCCl)cc2C1=Cc1cc2c(cc1Cl)OCO2 [10727/G06] | 31.1% | 2.9% | -12.5%
42 | O=C1Nc2ccc(CCCl)cc2C1=Cc1coc2ccccc2c1=O [10727/G07] | 29.6% | 7.2% | -24.1%
43 | N#Cc1cccc(C=C2C(=O)Nc3ccc(CCCl)cc32)c1 [10727/G08] | 21.8% | 15.7% | -7.4%
44 | N#Cc1ccc(C=C2C(=O)Nc3ccc(CCCl)cc32)cc1 [10727/G09] | 18.8% | 5.7% | 10.8%
45 | O=C1Nc2ccc(CCCl)cc2C1=Cc1cc(O)ccc1O [10727/G10] | 99.2% | -5.6% | 10.8%
46 | COc1cccc(C=C2C(=O)Nc3ccc(CCCl)cc32)c1OC [10727/G11] | -0.8% | 6.9% | 15.9%
47 | COc1ccc(OC)c(C=C2C(=O)Nc3c(Br)cc(Br)cc32)c1 [10728/A02] | 25.6% | -12.3% | -7.9%
48 | COc1cccc(OC)c1C=C1C(=O)Nc2c(Br)cc(Br)cc21 [10728/A03] | 29.2% | -7.3% | -7.9%
